From patent US5488068A, “Aminobiphenyl-4-ol anti-atherosclerotic compounds and method” (Bristol-Myers Squibb Company, priority 1994, dated 1996)

Tests used:
arterial lesion = conditions: animal models of atherosclerosis, high doses; cited from earlier work
human LDL [1] = experiment: Primary in vitro screen: inhibition of initial rate of Cu++-dependent LDL lipid oxidation, compound directly added to LDL; format: biochemical; conditions: CuSO4 10 μM, 37°, 90 min
Excerpt: (§1) The initial and later stages of LDL oxidation can be distinguished kinetically in vitro by measuring the formation of lipid conjugated diene oxidation products (ref. 10). By analogy to the behavior of antioxidants in simple single-phase systems (ref. 11), in vitro test systems were established to quantitate the protective effects of pure chemical compounds on Cu^++ -dependent LDL oxidation initial rate and lag phase. Both in vitro and ex vivo methods were employed to incorporate compounds into LDL. The magnitude of the decrease in the initial rate of conjugated diene formation was used as an estimate of the intrinsic LDL antioxidant potency of the test compound. The magnitude of the increase in lag time for the propagation phase of the oxidation chain reaction was used as an estimate of the effective concentration within LDL of the test compound. By this approach, quantitative estimation of the LDL antioxidant activity of compounds was used to identify chain-terminating antioxidants appropriate for testing in an in vivo atherosclerosis animal model.
This procedure determined the ability of test compounds added directly to LDL to inhibit the initial rate of LDL lipid oxidation monitored by conjugated diene content. The initial rate of conjugated diene formation was approximately linear with respect to time for approximately 2 hours under the conditions employed, prior to the end of the lag phase characterized by rapid propagation of the radical chain reaction and a corresponding large increase in conjugated diene content of the LDL sample. In the assay, aliquots of compounds dissolved in DMSO (and DMSO vehicle controls) were directly added to isolated human LDL (600 μg protein/mL) in Buffer 1 (10 mM HEPES, 150 mM NaCl, pH 7.2), and incubated at 37° for 60 min. Duplicate samples were then subjected to controlled oxidation by addition of CuSO4 (10 μM) and incubation at 37° for 0 or 90 min. The reaction was quenched by diluting with 5 volumes of buffer 1 plus EDTA (20 μM final) at 0° -4°. The conjugated diene levels in the LDL samples, a quantitative indicator of lipid peroxidation rate and extent, was determined spectrophotometrically by absorbance at 234 nm for each sample at 0 min and at 90 min time points of the CuSO4 incubation. […] Results are given in Table 1; a decrease vs. control reflects an active antioxidant.

LDL [2] = conditions: animal models of atherosclerosis, high doses; cited from earlier work
human LDL [3] = experiment: Secondary in vitro screen: LDL oxidation initial rate and lag time after in vitro plasma incorporation of compound into LDL; format: biochemical; conditions: 25 μM in plasma incorporation; CuSO4 2.5 μM, 20°
Excerpt: as §1
(§2) A plasma incorporation technique was used in this procedure to test for the partitioning of a compound into LDL and its retention during LDL isolation by ultracentrifugation and dialysis. The antioxidant activity remaining in LDL was then assayed by measuring the initial rate of Cu^++ -dependent conjugated diene formation, and the lag time before extensive formation of conjugated diene oxidation products. Incorporation of test compounds into LDL in vitro was achieved by addition of an aliquot of compound (final concentration 25 μM) in DMSO to aliquots of pooled human plasma previously dialyzed overnight in buffer 1 (10 mM HEPES, 150 mM NaCl, pH 7.2) and adjusted to d=1.019 with solid KBr, and incubating for 60 min at 37°. LDL was then isolated from plasma as the ([…] to d=1.063 g/ml) fraction by standard sequential flotation techniques using KBr solution discontinuous density gradients in an ultracentrifuge by a method adapted from the original procedure of Havel (J. Clin. Invest. 34:1345). The isolated LDL was dialyzed for 1 hour into buffer 1, and aliquots were added to cuvettes at 100 μg protein/ml in buffer 1. Oxidation reactions were initiated with CuSO4 (2.5 μM) at 20°. The LDL initial oxidation rate and lag time were measured by continuous monitoring of absorbance at 234 nm in a Beckman DU-7500 spectrophotometer. The initial oxidation rate was calculated as the slope of the linear regression curve of A234 vs. time over the first ~60 min. Percent of control was calculated for test compound vs. DMSO vehicle controls. Lag time was calculated as the time corresponding to the maximum value of the first derivative of the A234 vs. time curve. The value of the lag time from the A234 vs. time curve for test compounds compared to vehicle control was expressed as percent of control. Results are given in Table 2; a decrease vs. control in the initial rate, and an increase vs. control in the lag time, reflect an active antioxidant.

[4] = test system: aortic foam cell atherosclerosis lesion; experiment: In vivo atherosclerosis model in hamsters: aortic foam cell lesion size after 10 weeks; conditions: hamster; for aortic lesion size: oral in diet, mean ± SEM, n=12
Procedure: Atherosclerosis in hamsters is confined initially to a lesion prone area along the inner curvature of the aortic arch. Early atherogenesis in this region is characterized by the infiltration of monocytes which become lipid-filled macrophage foam cells, which can develop into complex fibrous atheromas. Antioxidants selected from primary and secondary in vitro screens and ex vivo assays were tested for their ability to inhibit macrophage foam cell lesion formation in hamsters in 10 weeks studies. Lesion size was assayed by video microscopy/image analysis of histological specimens of the aortic arch stained with the lipophilic dye, oil red O. Hamsters were maintained on a diet deficient in vitamins E, C, and K/menadione, selenium, and carotenoids, and supplemented with vitamin E-stripped corn oil (10%) and cholesterol (0.4%). This diet amplified oxidant stress while only moderately elevating plasma cholesterol and LDL levels. Test compounds were administered in this diet fed ad libitum for 10 weeks. The dosages are given as mg/kg/day based on food consumption measurements and weight of the animals at the end of the 10 week dosing period. […] Results are given in Table 4; a decrease in lesion size relative to control indicates an effective anti-atherosclerotic agent.

LDL [5] = experiment: Ex vivo LDL oxidation susceptibility assay in hamsters after 2 weeks oral administration; conditions: hamster; for ex vivo LDL oxidation initial rate / ex vivo LDL oxidation lag time: oral in diet, mean of 4 to 6 hamsters
Excerpt: as §1, §2
Compounds were administered orally to hamsters for 2 weeks using the same diet described for the atherosclerosis studies (part D.) At 2 weeks, hamsters were fasted overnight, blood was collected, and LDL was isolated as described above (part B). The same assay methods described above (part B.) were then used to obtain ex vivo LDL oxidation initial rate and lag time values. Results are given in Table 3; a decrease vs. control in the initial rate, and an increase in the lag time, reflect an active antioxidant.

LDL [6] = conditions: rabbit, in vivo; cited from earlier work
aortic lesions = conditions: cited from earlier work

Row | Structure (SMILES) | LDL oxidation initial rate (human LDL [1]; 1.0 μM) | LDL oxidation initial rate (human LDL [3]) | LDL oxidation lag time (human LDL [3]) | ex vivo LDL oxidation initial rate (LDL [5]; 60 mg/kg/day) | ex vivo LDL oxidation lag time (LDL [5]; 60 mg/kg/day) | protection of LDL from oxidation (LDL [6]) | aortic lesions in rabbits (aortic lesions) | also measured
1 | CC(C)(Sc1cc(C(C)(C)C)c(O)c(C(C)(C)C)c1)Sc1cc(C(C)(C)C)c(O)c(C(C)(C)C)c1 [probucol] | 79 % of control | 17.6 % of control | 293 % of control | – | – | – | – | arterial lesion size (arterial lesion): decreased arterial lesion size; oxidation of LDL in vivo (LDL [2]): decrease oxidation of LDL in vivo; aortic lesion size ([4]; 120 mg/kg/day): 59.4 ± 6.4 % of control; ex vivo LDL oxidation initial rate (LDL [5]; 120 mg/kg/day): 70 % of control; ex vivo LDL oxidation lag time (LDL [5]; 120 mg/kg/day): 141 % of control
2 | CN(C)c1cc(-c2ccccc2)ccc1O [Example 1, 3-(Dimethylamino)[1,1'-biphenyl]-4-ol] | 42.2 % of control | 17.9 % of control | 237 % of control | 17 % of control | 482 % of control | – | – | LDL oxidation initial rate (human LDL [1]; 0.30 μM): 66.2 % of control; LDL oxidation initial rate (human LDL [1]; 3.0 μM): 34.0 % of control; LDL oxidation initial rate (human LDL [1]; 10 μM): 1.7 % of control; anti-atherosclerotic effectiveness relative to probucol ([4]; oral): markedly more effective than the reference agent probucol; aortic lesion size ([4]; 3 mg/kg/day): 71.7 ± 13.7 % of control; aortic lesion size ([4]; 60 mg/kg/day): 46.2 ± 6.2 % of control; ex vivo LDL antioxidant activity relative to probucol and BHA (LDL [5]; oral): markedly more active in this model than the reference agents probucol and BHA
3 | Cc1cc(C(C)(C)C)c(O)c(C(C)(C)C)c1 [butylated hydroxytoluene (BHT), butylated hydroxytoluene] | – | – | – | – | – | protect LDL from oxidation | decrease aortic lesions in rabbits | –
4 | COc1ccc(O)c(C(C)(C)C)c1 [BHA, butylated hydroxyanisole] | 16 % of control | 11.0 % of control | 239 % of control | 77 % of control | 116 % of control | – | – | –
5 | c1ccc(Nc2ccc(Nc3ccccc3)cc2)cc1 [N,N'-diphenylphenylenediamine (DPPD), N,N'-diphenylphenylenediamine] | – | – | – | – | – | protect LDL from oxidation | decrease aortic lesions in rabbits | –
